Assay results published in ChEMBL document CHEMBL5543066, “Dual COX-2/15-LOX inhibitors: A new avenue in the prevention of cancer” (Eur J Med Chem, 2023).
Each block holds one compound with its values, some of them ahead of it.

Experiments:
[1] = molecular target: T1, Prostaglandin G/H synthase 2 (Homo sapiens, UniProt P35354); experiment: Inhibition of COX-2 (unknown origin) by Enzyme immune assay
T1 sequence (P35354 whole entry): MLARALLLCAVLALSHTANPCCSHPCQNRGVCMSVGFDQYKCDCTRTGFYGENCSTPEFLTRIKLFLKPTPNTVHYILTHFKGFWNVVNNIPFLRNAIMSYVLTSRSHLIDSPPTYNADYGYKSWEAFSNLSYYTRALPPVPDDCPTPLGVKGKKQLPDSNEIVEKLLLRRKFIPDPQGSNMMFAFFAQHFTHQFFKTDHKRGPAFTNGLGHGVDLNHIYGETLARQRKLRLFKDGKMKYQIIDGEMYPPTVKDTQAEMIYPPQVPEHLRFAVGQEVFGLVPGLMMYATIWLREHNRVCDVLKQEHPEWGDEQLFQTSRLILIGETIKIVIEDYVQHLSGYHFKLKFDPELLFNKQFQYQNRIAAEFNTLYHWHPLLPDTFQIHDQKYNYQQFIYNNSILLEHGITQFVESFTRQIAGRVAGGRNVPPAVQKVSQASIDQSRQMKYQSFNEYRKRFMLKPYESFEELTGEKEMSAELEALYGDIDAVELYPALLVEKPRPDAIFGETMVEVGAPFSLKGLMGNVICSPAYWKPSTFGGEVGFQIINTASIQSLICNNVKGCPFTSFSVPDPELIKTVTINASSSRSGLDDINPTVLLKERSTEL

[2] = tested on: Rattus norvegicus; experiment: Anti-inflammatory activity against carrageenan-induced paw edema in Wistar albino rat assessed as inhibition of paw edema at 50 mg/kg, sc administered for 14 days relative to control; type: functional; set-up: scale not given: the % may be the effect or the level left; settings: time 14 day
[3] = tested on: Rattus norvegicus; experiment: Anti-inflammatory activity against carrageenan-induced paw edema in Wistar albino rat assessed as inhibition of paw edema; type: functional
[4] = tested on: RAW264.7; experiment: Anti-inflammatory activity against mouse RAW264.7 cells assessed as inhibition of LPS-induced IL-6 production at 10 uM pre-incubated with LPS-stimulation for 2 hrs followed by compound addition and measured after 22 hrs by ELISA analysis relative to control; type: functional; set-up: scale not given: the % may be the effect or the level left; settings: time 24 hrs
[5] = tested on: RAW264.7; experiment: Anti-inflammatory activity against mouse RAW264.7 cells assessed as inhibition of LPS-induced TNF-alpha production at 10 uM pre-incubated with LPS-stimulation for 2 hrs followed by compound addition and measured after 22 hrs by ELISA analysis relative to control; type: functional; set-up: scale not given: the % may be the effect or the level left; settings: time 24 hrs
[6] = Inhibition of human recombinant sPLA2-V
[7] = molecular target: Carbonic anhydrase 2 (Homo sapiens, UniProt P00918); experiment: Inhibition of recombinant human carbonic anhydrase II incubated for 30 mins by spectrophotometric analysis
[8] = Inhibition of soybean lipoxygenase; set-up: species or system Glycine max
[9] = molecular target: T2, Prostaglandin G/H synthase 1 (Ovis aries, UniProt P05979); experiment: Inhibition of ovine COX-1
T2 sequence (P05979 whole entry): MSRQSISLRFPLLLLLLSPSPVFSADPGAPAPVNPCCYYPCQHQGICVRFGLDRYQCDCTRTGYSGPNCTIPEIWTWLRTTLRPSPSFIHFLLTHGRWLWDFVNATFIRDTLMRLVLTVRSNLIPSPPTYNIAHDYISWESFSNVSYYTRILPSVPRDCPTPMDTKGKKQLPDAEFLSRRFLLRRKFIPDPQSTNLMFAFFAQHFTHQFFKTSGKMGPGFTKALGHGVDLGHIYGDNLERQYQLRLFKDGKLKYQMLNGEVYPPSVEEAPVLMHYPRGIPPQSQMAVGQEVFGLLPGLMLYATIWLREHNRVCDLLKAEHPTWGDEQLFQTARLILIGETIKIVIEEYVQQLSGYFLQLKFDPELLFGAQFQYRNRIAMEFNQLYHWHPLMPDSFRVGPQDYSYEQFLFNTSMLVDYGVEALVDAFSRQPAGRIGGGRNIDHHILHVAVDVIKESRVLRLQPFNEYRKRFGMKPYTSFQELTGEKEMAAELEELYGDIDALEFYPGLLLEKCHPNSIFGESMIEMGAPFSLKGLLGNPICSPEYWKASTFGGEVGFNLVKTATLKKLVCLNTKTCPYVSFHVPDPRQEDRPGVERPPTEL

[10] = molecular target: T1, Prostaglandin G/H synthase 2; experiment: Inhibition of human COX-2
[11] = Selectivity ratio of IC50 for ovine COX-1 to IC50 for human COX-2
[12] = molecular target: T3, Polyunsaturated fatty acid 5-lipoxygenase (Homo sapiens, UniProt P09917); experiment: Inhibition of 5-LOX in human PMNL cells; type: cell-based
T3 sequence (P09917 whole entry): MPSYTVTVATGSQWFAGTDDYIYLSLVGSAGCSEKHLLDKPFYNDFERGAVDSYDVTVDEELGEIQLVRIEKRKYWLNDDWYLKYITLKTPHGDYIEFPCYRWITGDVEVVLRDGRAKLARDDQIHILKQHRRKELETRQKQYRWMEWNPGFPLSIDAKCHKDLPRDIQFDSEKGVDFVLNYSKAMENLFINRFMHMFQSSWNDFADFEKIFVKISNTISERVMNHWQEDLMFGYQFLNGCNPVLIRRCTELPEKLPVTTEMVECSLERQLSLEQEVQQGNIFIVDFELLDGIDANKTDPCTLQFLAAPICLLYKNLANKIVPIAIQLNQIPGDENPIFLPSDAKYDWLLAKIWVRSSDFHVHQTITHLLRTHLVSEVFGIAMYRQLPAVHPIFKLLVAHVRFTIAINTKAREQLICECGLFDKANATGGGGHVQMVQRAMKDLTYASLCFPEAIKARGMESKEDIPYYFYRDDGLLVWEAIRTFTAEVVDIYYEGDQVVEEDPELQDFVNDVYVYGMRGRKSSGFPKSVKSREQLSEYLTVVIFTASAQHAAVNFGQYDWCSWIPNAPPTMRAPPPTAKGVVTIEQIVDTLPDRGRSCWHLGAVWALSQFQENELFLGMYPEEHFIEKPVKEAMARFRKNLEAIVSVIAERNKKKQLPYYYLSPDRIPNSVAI

IC50 [1]: 1110 nM
IC50 [6]: 1000 nM
Structure (SMILES): COc1ccnc(Nc2nn3c(SC)c(C#N)c(O)nc3c2C#N)c1
Activity [2]: 46%
ED50 [3]: 35 mg/kg
Activity [4]: 80%
Activity [5]: 89%

IC50 [7]: 110 nM
Structure (SMILES): NS(=O)(=O)c1ccc(NCCC(=O)N/N=C/c2ccc(-c3ccc(Br)s3)cc2)cc1

IC50 [8]: 1020 nM
IC50 [9]: 9850 nM
IC50 [10]: 1000 nM
Ratio IC50 [11]: 9.85
IC50 [12]: 320 nM
Structure (SMILES): O=C1c2ccccc2C(=O)N1c1nc2cc([N+](=O)[O-])ccc2n1Cc1cccc(-c2ccccc2)c1
